Laboratory results: PMC8968748 (Journal of medicinal chemistry, 2021)
Where two headings read alike, the source gives them in different places.

How the values were obtained:
IDH1 R132H = IDH1 R132H (Homo sapiens, UniProt O75874, R132H); experiment: diaphorase/resazurin-coupled mIDH1 R132H enzyme assay; format: biochemical; conditions: for IC50: average of N = 3, reported only where ≥75% inhibition at 38 μM; for mIDH1 inhibitory activity: R132H and R132C mIDH1, Table 2 is an image; for fold improvement in potency compared to analog 70: mIDH1 R132H, relative to 70; for IDH1 R132H IC50 Fold improvement over 87: relative to compound 87
Sequence of IDH1 R132H (O75874 whole entry R132H): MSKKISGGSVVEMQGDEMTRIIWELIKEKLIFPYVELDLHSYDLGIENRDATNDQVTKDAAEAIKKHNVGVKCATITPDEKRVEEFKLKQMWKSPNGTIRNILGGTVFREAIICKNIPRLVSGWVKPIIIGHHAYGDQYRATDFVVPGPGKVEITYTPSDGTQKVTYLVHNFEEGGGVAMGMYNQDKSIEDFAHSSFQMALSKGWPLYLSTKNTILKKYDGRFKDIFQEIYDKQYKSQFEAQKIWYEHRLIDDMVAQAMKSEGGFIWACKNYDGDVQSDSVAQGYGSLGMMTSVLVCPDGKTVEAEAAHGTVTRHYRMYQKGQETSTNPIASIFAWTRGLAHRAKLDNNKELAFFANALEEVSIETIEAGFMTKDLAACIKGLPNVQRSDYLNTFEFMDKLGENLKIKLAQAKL

[1] = Parallel artificial membrane permeability assay; format: in vitro ADME; conditions: pH 7.4
IDH1 R132C = IDH1 R132C (Homo sapiens, UniProt O75874, R132C); experiment: diaphorase/resazurin-coupled mIDH1 R132C enzyme assay; format: biochemical; conditions: for IDH1 R132C IC50 Fold improvement over 87: relative to compound 87
Sequence of IDH1 R132C (O75874 whole entry R132C): as the sequence (O75874 whole entry R132H) above, with H132C counted along it

## 3-(4-(4-Chlorophenyl)thiazol-2-yl)-1-(2-ethyl-6-methylphenyl)-6-(2-methylprop-1-en-1-yl)-5-(piperazine-1-carbonyl)pyridin-2(1H)-one [Compound 115]
IDH1 R132H; read-out: IDH1 R132H IC50(μM) ± SD
  IC50: 0.27 µM

## CCc1ccc(OC)cc1-n1c(C=C(C)C)c(C(=O)N2CCNCC2)cc(-c2nc(-c3ccc(Cl)cc3)cs2)c1=O (mixture of isomers) [Compound 118, 3-(4-(4-Chlorophenyl)thiazol-2-yl)-1-(2-ethyl-5-methoxyphenyl)-6-(2-methylprop-1-en-1-yl)-5-(piperazine-1-carbonyl)pyridin-2(1H)-one]
[1]
  PAMPA (10^−6 cm/s): 549 10^−6 cm/s

## CCc1ccc(OC)cc1-n1c(C=C(C)C)c(C(=O)N2CCNCC2)cc(-c2nc(-c3ccc(Cl)cc3)cs2)c1=O (single isomer, unassigned) [(−)-118]
IDH1 R132H; IDH1 R132H IC50(μM) ± SD
  IC50: 0.42 ± 0.05 µM

## CCc1ccc(Cl)cc1-n1c(C=C(C)C)c(C(=O)N2CCNCC2)cc(-c2nc(-c3ccc(Cl)cc3)cs2)c1=O (single isomer, unassigned) [(−)-119]
IDH1 R132H; IDH1 R132H IC50(μM) ± SD
  IC50: 0.25 ± 0.04 µM

## COc1ccc(OC)c(-n2cccc(-c3nc(-c4ccc(Cl)cc4)cs3)c2=O)c1 [Compound 2, 3-(4-(4-Chlorophenyl)thiazol-2-yl)-1-(2,5-dimethoxyphenyl)pyridin-2(1H)-one]
IDH1 R132H
  mIDH1 inhibitory activity: completely inactive

## COc1ccc(OC)c(-n2c(C)ccc(-c3nc(-c4ccc(Cl)cc4)cs3)c2=O)c1 [Compound 3, 3-(4-(4-Chlorophenyl)thiazol-2-yl)-1-(2,5-dimethoxyphenyl)-6-methylpyridin-2(1H)-one]
IDH1 R132H
  mIDH1 inhibitory activity: completely inactive

## COc1ccc(OC)c(-n2c3c(cc(-c4nc(-c5ccccc5)cs4)c2=O)C(=O)CC(C)(C)C3)c1 [Compound 11, 1-(2,5-Dimethoxyphenyl)-7,7-dimethyl-3-(4-phenylthiazol-2-yl)-7,8-dihydroquinoline-2,5(1H,6H)-dione]
IDH1 R132H
  mIDH1 inhibitory activity: essentially equipotent to 1 against R132H mIDH1

## COc1ccc(OC)c(-n2c3c(cc(-c4cccc(-c5ccc(Cl)cc5)c4)c2=O)C(=O)CC(C)(C)C3)c1 [Compound 23, 3-(4’-Chloro-[1,1’-biphenyl]-3-yl)-1-(2,5-dimethoxyphenyl)-7,7-dimethyl-7,8-dihydroquinoline-2,5(1H,6H)-dione]
IDH1 R132H
  mIDH1 inhibitory activity: complete loss in mIDH1 inhibitory activity

## COc1ccc(OC)c(-n2c3c(cc(-c4ccc(-c5ccccc5)cc4)c2=O)C(=O)CC(C)(C)C3)c1 [Compound 24, 3-([1,1’-Biphenyl]-4-yl)-1-(2,5-dimethoxyphenyl)-7,7-dimethyl-7,8-dihydroquinoline-2,5(1H,6H)-dione]
IDH1 R132H
  mIDH1 inhibitory activity: complete loss in mIDH1 inhibitory activity

## COc1ccc(OC)c(-n2c3c(cc(-c4cccc(-c5ccc(Cl)cc5)n4)c2=O)C(=O)CC(C)(C)C3)c1 [Compound 25, 3-(6-(4-Chlorophenyl)pyridin-2-yl)-1-(2,5-dimethoxyphenyl)-7,7-dimethyl-7,8-dihydroquinoline-2,5(1H,6H)-dione]
IDH1 R132H
  mIDH1 inhibitory activity: retained some activity

## CCOc1ccccc1-n1c2c(cc(-c3nc(-c4ccc(Cl)cc4)cs3)c1=O)C(=O)CC(C)(C)C2 [Compound 29, 3-(4-(4-Chlorophenyl)thiazol-2-yl)-1-(2-ethoxyphenyl)-7,7-dimethyl-7,8-dihydroquinoline-2,5(1H,6H)-dione]
IDH1 R132H; IDH1 R132H IC50(μM) ± SD
  IC50: 0.51 ± 0.03 µM

## CC(c1ccccc1)n1c2c(cc(-c3nc(-c4ccc(Cl)cc4)cs3)c1=O)C(=O)CC(C)(C)C2 (stereo not drawn) [Compound 48, 3-(4-(4-Chlorophenyl)thiazol-2-yl)-7,7-dimethyl-1-(1-phenylethyl)-7,8-dihydroquinoline-2,5(1H,6H)-dione]
IDH1 R132H; IDH1 R132H IC50(μM) ± SD
  IC50: > 38 µM
IDH1 R132C; read-out: IDH1 R132C % inhibition ± SD at 38 μM
  inhibition at 38 µM: 34 ± 1%

## COc1cc(C(=O)O)ccc1-n1c2c(cc(-c3nc(-c4ccc(Cl)cc4)cs3)c1=O)C(=O)CC(C)(C)C2 [Compound 57, 4-(3-(4-(4-Chlorophenyl)thiazol-2-yl)-7,7-dimethyl-2,5-dioxo-5,6,7,8-tetrahydroquinolin-1(2H)-yl)-3-methoxybenzoic acid]
IDH1 R132H; IDH1 R132H IC50(μM) ± SD
  IC50: > 38 µM

## CCc1cccc(CC)c1-n1c(C)c(C(=O)NCCO)cc(-c2nc(-c3ccc(Cl)cc3)cs2)c1=O [Compound 75, 5-(4-(4-Chlorophenyl)thiazol-2-yl)-1-(2,6-diethylphenyl)-N-(2-hydroxyethyl)-2-methyl-6-oxo-1,6-dihydropyridine-3-carboxamide]
IDH1 R132H
  fold improvement in potency compared to analog 70: 3 fold

## CCc1cccc(CC)c1-n1c(C)c(C(=O)NCCN)cc(-c2nc(-c3ccc(Cl)cc3)cs2)c1=O [Compound 78, N-(2-Aminoethyl)-5-(4-(4-chlorophenyl)thiazol-2-yl)-1-(2,6-diethylphenyl)-2-methyl-6-oxo-1,6-dihydropyridine-3-carboxamide]
IDH1 R132H
  fold improvement in potency compared to analog 70: 3 fold

## CCCc1c(C(=O)N2CCNCC2)cc(-c2nc(-c3ccc(Cl)cc3)cs2)c(=O)n1-c1c(CC)cccc1CC [Compound 89, 3-(4-(4-Chlorophenyl)thiazol-2-yl)-1-(2,6-diethylphenyl)-5-(piperazine-1-carbonyl)-6-propylpyridin-2(1H)-one]
[1]
  PAMPA (10^−6 cm/s): 134 10^−6 cm/s
IDH1 R132H
  IDH1 R132H IC50 Fold improvement over 87: 2.8 fold
IDH1 R132C
  IDH1 R132C IC50 Fold improvement over 87: 15 fold

## CCc1cccc(CC)c1-n1c(CC(C)C)c(C(=O)N2CCNCC2)cc(-c2nc(-c3ccc(Cl)cc3)cs2)c1=O [Compound 91, 3-(4-(4-Chlorophenyl)thiazol-2-yl)-1-(2,6-diethylphenyl)-6-isobutyl-5-(piperazine-1-carbonyl)pyridin-2(1H)-one]
[1]
  PAMPA (10^−6 cm/s): 16 10^−6 cm/s
IDH1 R132H
  IDH1 R132H IC50 Fold improvement over 87: 1.9 fold
IDH1 R132C
  IDH1 R132C IC50 Fold improvement over 87: 13 fold

## CCc1cccc(CC)c1-n1c(C=C(C)C)c(C(=O)N2CCNCC2)cc(-c2nc(-c3ccc(Cl)cc3)cs2)c1=O [Compound 92, 3-(4-(4-Chlorophenyl)thiazol-2-yl)-1-(2,6-diethylphenyl)-6-(2-methylprop-1-en-1-yl)-5-(piperazine-1-carbonyl)pyridin-2(1H)-one]
[1]
  PAMPA (10^−6 cm/s): 225 10^−6 cm/s
IDH1 R132H
  IDH1 R132H IC50 Fold improvement over 87: 4.8 fold
IDH1 R132C
  IDH1 R132C IC50 Fold improvement over 87: 26 fold

## CCc1cccc(CC)c1-n1c(CC2CC2)c(C(=O)N2CCNCC2)cc(-c2nc(-c3ccc(Cl)cc3)cs2)c1=O [Compound 93, 3-(4-(4-Chlorophenyl)thiazol-2-yl)-6-(cyclopropylmethyl)-1-(2,6-diethylphenyl)-5-(piperazine-1-carbonyl)pyridin-2(1H)-one]
[1]
  PAMPA (10^−6 cm/s): 43 10^−6 cm/s
IDH1 R132H
  IDH1 R132H IC50 Fold improvement over 87: 3.8 fold
IDH1 R132C
  IDH1 R132C IC50 Fold improvement over 87: 31 fold

## CCc1cccc(CC)c1-n1c(CC2CCNC2)c(C(=O)N2CCNCC2)cc(-c2nc(-c3ccc(Cl)cc3)cs2)c1=O (stereo not drawn) [Compound 98, 3-(4-(4-Chlorophenyl)thiazol-2-yl)-1-(2,6-diethylphenyl)-5-(piperazine-1-carbonyl)-6-(pyrrolidin-3-ylmethyl)pyridin-2(1H)-one]
[1]
  PAMPA (10^−6 cm/s): 24 10^−6 cm/s
IDH1 R132H
  IDH1 R132H IC50 Fold improvement over 87: 2.8 fold
IDH1 R132C
  IDH1 R132C IC50 Fold improvement over 87: 12 fold

## CCc1cccc(CC)c1-n1c(C=C(C)C)c(C(=O)N2CCNCC2C)cc(-c2nc(-c3ccc(Cl)cc3)cs2)c1=O (stereo not drawn) [Compound 100, 3-(4-(4-Chlorophenyl)thiazol-2-yl)-1-(2,6-diethylphenyl)-5-(2-methylpiperazine-1-carbonyl)-6-(2-methylprop-1-en-1-yl)pyridin-2(1H)-one]
[1]
  PAMPA (10^−6 cm/s): 40 10^−6 cm/s

## CCc1cccc(CC)c1-n1c(C=C(C)C)c(C(=O)N2CCNC3(CC3)C2)cc(-c2nc(-c3ccc(Cl)cc3)cs2)c1=O [Compound 103, 3-(4-(4-Chlorophenyl)thiazol-2-yl)-1-(2,6-diethylphenyl)-6-(2-methylprop-1-en-1-yl)-5-(4,7-diazaspiro[2.5]octane-7-carbonyl)pyridin-2(1H)-one]
[1]
  PAMPA (10^−6 cm/s): 48 10^−6 cm/s

## CCc1cccc(CC)c1-n1c(C=C(C)C)c(C(=O)N2CCNC(=O)C2)cc(-c2nc(-c3ccc(Cl)cc3)cs2)c1=O [Compound 105, 4-(5-(4-(4-Chlorophenyl)thiazol-2-yl)-1-(2,6-diethylphenyl)-2-(2-methylprop-1-en-1-yl)-6-oxo-1,6-dihydropyridine-3-carbonyl)piperazin-2-one]
[1]
  PAMPA (10^−6 cm/s): 275 10^−6 cm/s

## CCc1cccc(CC)c1-n1c(C=C(C)C)c(C(=O)N2CCNC(C(=O)O)C2)cc(-c2nc(-c3ccc(Cl)cc3)cs2)c1=O (stereo not drawn) [Compound 108, 4-(5-(4-(4-Chlorophenyl)thiazol-2-yl)-1-(2,6-diethylphenyl)-2-(2-methylprop-1-en-1-yl)-6-oxo-1,6-dihydropyridine-3-carbonyl)piperazine-2-carboxylic acid]
[1]
  PAMPA (10^−6 cm/s): <1 10^−6 cm/s

## CCc1cccc(CC)c1-n1c(C=C(C)C)c(C(=O)N2C[C@H]3CC[C@@H](C2)N3)cc(-c2nc(-c3ccc(Cl)cc3)cs2)c1=O [Compound 111, 5-((1R,5S)-3,8-Diazabicyclo[3.2.1]octane-3-carbonyl)-3-(4-(4-chlorophenyl)thiazol-2-yl)-1-(2,6-diethylphenyl)-6-(2-methylprop-1-en-1-yl)pyridin-2(1H)-one]
[1]
  PAMPA (10^−6 cm/s): 89 10^−6 cm/s

## CCc1cccc(CC)c1-n1c(C=C(C)C)c(C(=O)N2C3CCC2CNC3)cc(-c2nc(-c3ccc(Cl)cc3)cs2)c1=O [Compound 112, 5-(3,8-Diazabicyclo[3.2.1]octane-8-carbonyl)-3-(4-(4-chlorophenyl)thiazol-2-yl)-1-(2,6-diethylphenyl)-6-(2-methylprop-1-en-1-yl)pyridin-2(1H)-one]
[1]; PAMPA, 30 min, 0.05 mM
  PAMPA (10^−6 cm/s): 99 10^−6 cm/s

## CC(C)=Cc1c(C(=O)N2CCNCC2)cc(-c2nc(-c3ccc(Cl)cc3)cs2)c(=O)n1-c1ccccc1 [Compound 113, 3-(4-(4-Chlorophenyl)thiazol-2-yl)-6-(2-methylprop-1-en-1-yl)-1-phenyl-5-(piperazine-1-carbonyl)pyridin-2(1H)-one]
IDH1 R132H; relative to 92
  fold drop in R132H potency: 7.5 fold
IDH1 R132C; relative to 92
  fold drop in R132C potency: 55 fold
